Consider 27 compounds from patent US10766869B2, “Triazoles for the treatment of demyelinating dieases” (Vertex Pharmaceuticals Incorporated, priority 2015, dated 2020).

For this assay, the system named is primary rat mixed cortical cells. The assay can be described thus: In vitro myelination assay (MBP positive myelin strands, fold myelin pixels above background). The format is cell-based. Conditions: Rattus norvegicus; for fold induction at 1 µM: 1.0 μM compound; for fold induction at 10 µM: 10.0 μM compound. The method in brief: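 Mixed cortical culture, P1 rat, 87,500-95,000 cells/well; compound present from seeding, refreshed days 6 and 10; 14 d, 37 °C, 5% CO2. Day 14: PFA fix, anti-MBP + Hoechst. Read-out: fold MBP myelin pixels over untreated, tested at 1.0 and 10.0 μM.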

Setting [1] is: relative to baseline of no added compound, read-out: Fold myelin pixels above background, 1.0 μM.
Setting [2] is: relative to baseline of no added compound, read-out: Fold myelin pixels above background, 10.0 μM.
[3] abbreviates: relative to baseline of no added compound, read-out: Fold myelin pixels above background.
[4] abbreviates: read-out: Fold myelin pixels above background relative to baseline of no added compound.

Where two headings read alike, the source gives them in different places.

Turning to `Cc1cc(Nc2ncn(-c3cc(F)cc(F)c3)n2)cc(N2CCN(C(C)(CO)CO)CC2)c1` [Compound 311, 2-[4-[3-[[1-(3,5-difluorophenyl)-1,2,4-triazol-3-yl]amino]-5-methyl-phenyl]piperazin-1-yl]-2-methyl-propane-1,3-diol], the fold induction at 1 µM under setting [1] was not above 1. Also, the fold induction at 10 µM under setting [2] was not above 1.

With `Cc1cc(Nc2ncn(-c3ccccc3Cl)n2)cc(N2CCN(C)CC2)c1` [Compound 428, 1-(2-chlorophenyl)-N-[3-methyl-5-(4-methylpiperazin-1-yl)phenyl]-1,2,4-triazol-3-amine], under setting [3], the fold induction at 1 µM is 1 to 10 and the fold induction at 10 µM was in the range of 10 to 100.

With `Cc1cc(Nc2ncn(-c3cc(F)cc(F)c3)n2)cc(NC2CCN(C3CCOC3)CC2)c1` (stereo not drawn) [Compound 1064, N3-[1-(3,5-difluorophenyl)-1,2,4-triazol-3-yl]-5-methyl-N1-(1-tetrahydrofuran-3-yl-4-piperidyl)benzene-1,3-diamine], under setting [4], the fold induction at 1 µM fell in the range of 10 to 100 and the fold induction at 10 µM was not above 1.

With `Cc1cc(Nc2ncn(-c3cc(F)nc(F)c3)n2)cc(N2CCN(C3COC3)CC2)c1` [Compound 232, 1-(2,6-difluoro-4-pyridyl)-N-[3-methyl-5-[4-(oxetan-3-yl)piperazin-1-yl]phenyl]-1,2,4-triazol-3-amine], the fold induction at 1 µM under setting [1] lay in the range of 10 to 100. In addition, the fold induction at 10 µM under setting [2] is 10 to 100.

In the case of `N#Cc1cc(Nc2ncn(-c3ccccc3)n2)cc(N2CCN(C3COC3)CC2)c1` [Compound 592, 3-[4-(oxetan-3-yl)piperazin-1-yl]-5-[(1-phenyl-1,2,4-triazol-3-yl)amino]benzonitrile], under setting [3], the fold induction at 1 µM was 1 to 10 and the fold induction at 10 µM is not above 1.

Take `Cc1cc(Nc2ncn(-c3ccc(C#N)c(F)c3)n2)cc(N2CCN(C3COC3)CC2)c1` [Compound 140, 2-fluoro-4-[3-[3-methyl-5-[4-(oxetan-3-yl)piperazin-1-yl]anilino]-1,2,4-triazol-1-yl]benzonitrile]: the fold induction at 1 µM under setting [1] lay within 1 to 10. Moreover, the fold induction at 10 µM under setting [2] fell in the range of 1 to 10.

Take `CC(=O)OCC(C)(CO)N1CCN(c2cc(C)cc(Nc3ncn(-c4cc(F)cc(F)c4)n3)c2)CC1` (stereo not drawn) [Compound 534, [2-[4-[3-[[1-(3,5-difluorophenyl)-1,2,4-triazol-3-yl]amino]-5-methyl-phenyl]piperazin-1-yl]-3-hydroxy-2-methyl-propyl] acetate]: under setting [3], the fold induction at 1 µM lay in the range of 1 to 10 and the fold induction at 10 µM was not above 1.

Take `c1cnc(-n2cnc(Nc3cc(C4CC4)cc(N4CC(N5CCOCC5)C4)c3)n2)cn1` [Compound 539, N-[3-cyclopropyl-5-(3-morpholinoazetidin-1-yl)phenyl]-1-pyrazin-2-yl-1,2,4-triazol-3-amine]: under setting [3], the fold induction at 1 µM is 10 to 100 and the fold induction at 10 µM lay within 10 to 100.

Turning to `Cc1cc(Nc2ncn(-c3ccc(F)c(F)c3)n2)cc(NC2CC(N3CCOCC3)C2)c1` (stereo not drawn) [Compound 799, N3-[1-(3,4-difluorophenyl)-1,2,4-triazol-3-yl]-5-methyl-N1-(3-morpholinocyclobutyl)benzene-1,3-diamine], under setting [4], the fold induction at 1 µM lay within 10 to 100 and the fold induction at 10 µM is not above 1.

Regarding `Cc1cc(Nc2ncn(-c3cccc(Cl)n3)n2)cc(N2CCCC2)c1` [Compound 488, 1-(6-chloro-2-pyridyl)-N-(3-methyl-5-pyrrolidin-1-yl-phenyl)-1,2,4-triazol-3-amine], under setting [3], the fold induction at 1 µM is not above 1 and the fold induction at 10 µM was not above 1.

Turning to `COc1cc(Nc2ncn(-c3cccc(C(F)F)c3)n2)cc(N2CCN(C3COC3)CC2)c1` [Compound 693, 1-[3-(difluoromethyl)phenyl]-N-[3-methoxy-5-[4-(oxetan-3-yl)piperazin-1-yl]phenyl]-1,2,4-triazol-3-amine], under setting [3], the fold induction at 1 µM fell in the range of 1 to 10 and the fold induction at 10 µM was not above 1.

On to `Cc1c(Nc2ncn(-c3cc(F)cc(F)c3)n2)cc(N2CCN(C3COC3)CC2)cc1OC(C)C` [Compound 591, 1-(3,5-difluorophenyl)-N-[3-isopropoxy-2-methyl-5-[4-(oxetan-3-yl)piperazin-1-yl]phenyl]-1,2,4-triazol-3-amine], for which, under setting [3], the fold induction at 1 µM lay in the range of 10 to 100 and the fold induction at 10 µM was in the range of 10 to 100.

For `Cc1cc(Nc2ncn(-c3cc(F)cc(F)c3)n2)cc(N2CCN(CC(O)CN(C)C)CC2)c1` (stereo not drawn) [Compound 1078, 1-[4-[3-[[1-(3,5-difluorophenyl)-1,2,4-triazol-3-yl]amino]-5-methyl-phenyl]piperazin-1-yl]-3-(dimethylamino)propan-2-ol], under setting [4], the fold induction at 1 µM was in the range of 1 to 10 and the fold induction at 10 µM was not above 1.

Take `Cc1cc(Nc2ncn(-c3ccc(F)c(F)c3)n2)cc(N2CCOCC2)n1` [Compound 265, N-[1-(3,4-difluorophenyl)-1,2,4-triazol-3-yl]-2-methyl-6-morpholino-pyridin-4-amine]: the fold induction at 1 µM under setting [1] was in the range of 100 to 1000. Further, under setting [2], the fold induction at 10 µM was in the range of 100 to 1000.

Consider `[2H]C1([2H])N(CC2COCCO2)C([2H])([2H])C([2H])([2H])N(c2cc(C)cc(Nc3ncn(-c4cc(F)cc(F)c4)n3)c2)C1([2H])[2H]` (stereo not drawn) [Compound 885, 1-(3,5-difluorophenyl)-N-[3-methyl-5-[2,2,3,3,5,5,6,6-octadeuterio-4-(1,4-dioxan-2-ylmethyl)piperazin-1-yl]phenyl]-1,2,4-triazol-3-amine], for which, under setting [4], the fold induction at 1 µM was in the range of 10 to 100 and the fold induction at 10 µM is not above 1.

Regarding `CCc1cc(Nc2ncn(-c3ccc(OC(F)(F)F)cc3)n2)cc(N2CCN(C3COC3)CC2)c1` [Compound 303, N-[3-ethyl-5-[4-(oxetan-3-yl)piperazin-1-yl]phenyl]-1-[4-(trifluoromethoxy)phenyl]-1,2,4-triazol-3-amine], the fold induction at 1 µM under setting [1] was 1 to 10. For the same compound, under setting [2], the fold induction at 10 µM fell in the range of 1 to 10.

With `CCc1cc(Nc2ncn(-c3ccc(F)c(F)c3)n2)cc(N2CCN(C3COC3)CC2)c1` [Compound 69, 1-(3,4-difluorophenyl)-N-[3-ethyl-5-[4-(oxetan-3-yl)piperazin-1-yl]phenyl]-1,2,4-triazol-3-amine], under setting [1], the fold induction at 1 µM is 1000 to 10000. In addition, under setting [2], the fold induction at 10 µM fell in the range of 10 to 100.

For the compound `Cc1cc(Nc2ncn(-c3cc(F)cc(F)c3)n2)cc(N2CCN(C)CC2)n1` [Compound 365, N-[1-(3,5-difluorophenyl)-1,2,4-triazol-3-yl]-2-methyl-6-(4-methylpiperazin-1-yl)pyridin-4-amine], the fold induction at 1 µM under setting [1] lay within 10 to 100. For the same compound, under setting [2], the fold induction at 10 µM is not above 1.

With `Cc1cc(Nc2ncn(-c3ccc(F)c(F)c3)n2)cc(O[C@@H]2CCN(C3COC3)C2)c1` [Compound 46, 1-(3,4-difluorophenyl)-N-[3-methyl-5-[(3R)-1-(oxetan-3-yl)pyrrolidin-3-yl]oxy-phenyl]-1,2,4-triazol-3-amine], the fold induction at 1 µM under setting [1] was in the range of 1000 to 10000. Besides, under setting [2], the fold induction at 10 µM fell in the range of 1 to 10.

Regarding `Cc1cc(Nc2ncn(-c3ccc(F)c(F)c3)n2)cc(N2CCN(C)CC2)n1` [Compound 263, N-[1-(3,4-difluorophenyl)-1,2,4-triazol-3-yl]-2-methyl-6-(4-methylpiperazin-1-yl)pyridin-4-amine], the fold induction at 1 µM under setting [1] lay in the range of 10 to 100. Also, the fold induction at 10 µM under setting [2] is 100 to 1000.

On to `CC(=O)N1CCC(Nc2cc(C)cc(Nc3ncn(-c4ccccc4)n3)c2)CC1` [Compound 402, 1-[4-[3-methyl-5-[(1-phenyl-1,2,4-triazol-3-yl)amino]anilino]-1-piperidyl]ethanone], for which, under setting [3], the fold induction at 1 µM is 100 to 1000 and the fold induction at 10 µM was in the range of 10 to 100.

Consider `Cc1cc(Nc2ncn(-c3cc(F)cc(F)c3)n2)cc(N2CCCC2CN2CCCC2CO)c1` (stereo not drawn) [Compound 1077, [1-[[1-[3-[[1-(3,5-difluorophenyl)-1,2,4-triazol-3-yl]amino]-5-methyl-phenyl]pyrrolidin-2-yl]methyl]pyrrolidin-2-yl]methanol], for which, under setting [4], the fold induction at 1 µM fell in the range of 1 to 10 and the fold induction at 10 µM is not above 1.

On to `Cc1cc(NCC(C)N2CC(C)OC(C)C2)cc(Nc2ncn(-c3cc(F)cc(F)c3)n2)c1` (stereo not drawn) [Compound 882, N1-[1-(3,5-difluorophenyl)-1,2,4-triazol-3-yl]-N3-[2-(2,6-dimethylmorpholin-4-yl)propyl]-5-methyl-benzene-1,3-diamine], for which, under setting [4], the fold induction at 1 µM was 1 to 10 and the fold induction at 10 µM is 1 to 10.

Consider `COc1cc(-n2cnc(Nc3cc(C)cc(N4CCN(C5COC5)CC4)c3)n2)ncn1` [Compound 254, 1-(6-methoxypyrimidin-4-yl)-N-[3-methyl-5-[4-(oxetan-3-yl)piperazin-1-yl]phenyl]-1,2,4-triazol-3-amine], for which the fold induction at 1 µM under setting [1] is not above 1. The fold induction at 10 µM under setting [2] was 100 to 1000.

On to `Cc1cc(Nc2ncn(-c3cnccn3)n2)cc(N2CC3(C2)CN(C(C)C)C3)c1` [Compound 967, N-[3-(2-isopropyl-2,6-diazaspiro[3.3]heptan-6-yl)-5-methyl-phenyl]-1-pyrazin-2-yl-1,2,4-triazol-3-amine], for which, under setting [4], the fold induction at 1 µM was in the range of 10 to 100 and the fold induction at 10 µM is not above 1.

On to `Cc1cc(Nc2ncn(-c3ccncc3)n2)cc(N2CCN(C3COC3)CC2)c1` [Compound 224, N-[3-methyl-5-[4-(oxetan-3-yl)piperazin-1-yl]phenyl]-1-(4-pyridyl)-1,2,4-triazol-3-amine], for which the fold induction at 1 µM under setting [1] lay in the range of 100 to 1000. Also, under setting [2], the fold induction at 10 µM lay within 10 to 100.

Turning to `Cc1cc(Nc2ncn(-c3ccccc3)n2)cc(N2CCC3(CC2)COC3)c1` [Compound 11, N-[3-methyl-5-(2-oxa-7-azaspiro[3.5]nonan-7-yl)phenyl]-1-phenyl-1,2,4-triazol-3-amine], the fold induction at 1 µM under setting [1] lay in the range of 1000 to 10000. For the same compound, the fold induction at 10 µM under setting [2] is 1000 to 10000.
